Reference: patent US6960574B2, “Antagonists of RF-amide neuropeptides” (University of Florida, priority 2002, dated 2005)
Peptide text beside a SMILES is read from it. * marks the point of attachment. Dansyl = CN(C)c1cccc2c(S(=O)(=O)*)cccc12

These compounds were tested on receptor labeled by the radioiodinated analogue of 1 (4, [125I]-YLFQPQRF-NH2); neuropeptide FF receptor (assay: Competitive radioligand binding against 4 ([125I]Y8F-amide)). Conditions: mixture-based positional scanning; difference from averaged radioligand displacement of whole library (0); about 80 a.u. = 10-fold change in Ki.
Text: Additionally, three-dimensional (3-D) molecular models of the known smaller-size neuropeptide FF antagonists 3 and 3a were constructed and their low-energy conformations were obtained in the AMBER force-field [Weiner, et al., J. Comput. Chem. 1986, 7, […].] by molecular dynamics calculations involving simulated annealing. A semi-empirical quantum chemical method with the PM3 parameterization [Stewart, J. Comput. Chem. 1989, 10, 209-220.] was used for the final geometry optimization. […] At least one of the rings in domain B is aromatic. No similarity between 3 and 3a outside these domains were apparent; therefore, the simultaneous presence of A and B domains in the structure of neuropeptide FF (1) antagonists is critical to the invention. Apparently, structural subunits (domain C) outside domains A and B should function in a cooperative manner in directing the pharmacophores into proper geometric positions when improved binding to the cognate receptor is to be obtained, which is associated with the improvement of the desired pharmacological effect. An approach involving mixture-based synthetic combinatorial libraries and positional scanning [(a) Houghten, et al., J. Med Chem. 1999, 42, 3743-3778.] was adopted in the search for preferred structural motifs in domain C that assist in achieving this objective in this invention. To allow for the use of 3 as a reference in this process, the guadinino group (A) was incorporated as part of an L-2-amino-5-{[amino(imino)methyl]amino}pentanoyl (arginyl, R, Arg) residue and 5-dimethylamino-1-naphthalenesulphonyl (dansyl) was chosen to form B (However, it must be emphasized that both R and dansyl are replaceable with moieties that bestow A and B domain attributes described in the invention).
Upon screening for residues to replace the glutamine of 3, serine (S) was the only building block in this position that increased the displacement of 4 in the radioligand-binding assay. Therefore, motifs present in dansyl-Gly-Ser-Arg-NH2, dansyl-Gly-Gln-Arg-NH2, dansyl-Gln-Ser-Arg-NH2, and dansyl-Gln-Gln-Arg-NH2 were chosen based on their affinity to the cognate receptor for further consideration as primary templates when designing the domain C of the compounds described in the invention herein. […]

Compared with `CN(C)c1cccc2c(S(=O)(=O)N[C@@H](CC(=O)O)C(=O)N3CCC[C@H]3C(=O)N[C@@H](CCCNC(=N)N)C(N)=O)cccc12` [Dansyl-DPR-amide] (Dansyl-Asp-Pro-Arg-NH2), `CN(C)c1cccc2c(S(=O)(=O)N[C@@H](CCC(=O)O)C(=O)N3CCC[C@H]3C(=O)N[C@@H](CCCNC(=N)N)C(N)=O)cccc12` [Dansyl-EPR-amide] (Dansyl-Glu-Pro-Arg-NH2) is higher in “Relative Binding Index (RBI)” value: −2 a.u for the first, 20 a.u for the second.

Compared with `CN(C)c1cccc2c(S(=O)(=O)N[C@@H](CC(=O)O)C(=O)N[C@@H](CCC(N)=O)C(=O)N[C@@H](CCCNC(=N)N)C(N)=O)cccc12` [Dansyl-DQR-amide] (Dansyl-Asp-Gln-Arg-NH2), `CN(C)c1cccc2c(S(=O)(=O)N[C@@H](CCC(=O)O)C(=O)N[C@@H](CCC(N)=O)C(=O)N[C@@H](CCCNC(=N)N)C(N)=O)cccc12` [Dansyl-EQR-amide] (Dansyl-Glu-Gln-Arg-NH2) is higher in “Relative Binding Index (RBI)” value: 8 a.u for the first, 30 a.u for the second.

Compared with `CN(C)c1cccc2c(S(=O)(=O)N[C@@H](CC(=O)O)C(=O)N[C@@H](CCCNC(=N)N)C(=O)N[C@@H](CCCNC(=N)N)C(N)=O)cccc12` [Dansyl-DRR-amide] (Dansyl-Asp-Arg-Arg-NH2), `CN(C)c1cccc2c(S(=O)(=O)N[C@@H](CCC(=O)O)C(=O)N[C@@H](CCCNC(=N)N)C(=O)N[C@@H](CCCNC(=N)N)C(N)=O)cccc12` [Dansyl-ERR-amide] (Dansyl-Glu-Arg-Arg-NH2) is higher in “Relative Binding Index (RBI)” value: −7 a.u for the first, 15 a.u for the second.

Compared with `CN(C)c1cccc2c(S(=O)(=O)N[C@@H](CC(=O)O)C(=O)N[C@@H](CO)C(=O)N[C@@H](CCCNC(=N)N)C(N)=O)cccc12` [Dansyl-DSR-amide] (Dansyl-Asp-Ser-Arg-NH2), `CN(C)c1cccc2c(S(=O)(=O)N[C@@H](CCC(=O)O)C(=O)N[C@@H](CO)C(=O)N[C@@H](CCCNC(=N)N)C(N)=O)cccc12` [Dansyl-ESR-amide] (Dansyl-Glu-Ser-Arg-NH2) is higher in “Relative Binding Index (RBI)” value: 15 a.u for the first, 37 a.u for the second.

First: C[C@@H](O)[C@H](NC(=O)[C@H](CC(=O)O)NS(=O)(=O)c1cccc2c(N(C)C)cccc12)C(=O)N[C@@H](CCCNC(=N)N)C(N)=O [Dansyl-DTR-amide] (Dansyl-Asp-Thr-Arg-NH2)
Second: CC(C)[C@H](NC(=O)[C@H](CC(=O)O)NS(=O)(=O)c1cccc2c(N(C)C)cccc12)C(=O)N[C@@H](CCCNC(=N)N)C(N)=O [Dansyl-DVR-amide] (Dansyl-Asp-Val-Arg-NH2)
The “Relative Binding Index (RBI)” value of the first is higher: 0 a.u for the first, −10 a.u for the second.

Going from `CN(C)c1cccc2c(S(=O)(=O)N[C@@H](CC(=O)O)C(=O)N[C@@H](Cc3c[nH]c4ccccc34)C(=O)N[C@@H](CCCNC(=N)N)C(N)=O)cccc12` [Dansyl-DWR-amide] (Dansyl-Asp-Trp-Arg-NH2) to `CN(C)c1cccc2c(S(=O)(=O)N[C@@H](CCC(=O)O)C(=O)N[C@@H](Cc3c[nH]c4ccccc34)C(=O)N[C@@H](CCCNC(=N)N)C(N)=O)cccc12` [Dansyl-EWR-amide] (Dansyl-Glu-Trp-Arg-NH2), the “Relative Binding Index (RBI)” value rises from 3 a.u to 25 a.u.

Compared with `CN(C)c1cccc2c(S(=O)(=O)N[C@@H](CC(=O)O)C(=O)N[C@@H](Cc3ccc(O)cc3)C(=O)N[C@@H](CCCNC(=N)N)C(N)=O)cccc12` [Dansyl-DYR-amide] (Dansyl-Asp-Tyr-Arg-NH2), `CN(C)c1cccc2c(S(=O)(=O)N[C@@H](CCC(=O)O)C(=O)N[C@@H](Cc3ccc(O)cc3)C(=O)N[C@@H](CCCNC(=N)N)C(N)=O)cccc12` [Dansyl-EYR-amide] (Dansyl-Glu-Tyr-Arg-NH2) is higher in “Relative Binding Index (RBI)” value: −7 a.u for the first, 15 a.u for the second.

Compared with `C[C@H](NC(=O)[C@H](CCC(=O)O)NS(=O)(=O)c1cccc2c(N(C)C)cccc12)C(=O)N[C@@H](CCCNC(=N)N)C(N)=O` [Dansyl-EAR-amide] (Dansyl-Glu-Ala-Arg-NH2), `CC(O)C(NC(=O)C(CCC(=O)O)NS(=O)(=O)c1cccc2c(N(C)C)cccc12)C(=O)NC(CCCNC(=N)N)C(N)=O` (stereo not drawn) [Dansyl-ETR-amide] (Dansyl-Glu-Thr-Arg-NH2; configuration not given here) is higher in “Relative Binding Index (RBI)” value: −32 a.u for the first, 22 a.u for the second.

Going from `CN(C)c1cccc2c(S(=O)(=O)N[C@@H](CCC(=O)O)C(=O)N[C@@H](CC(=O)O)C(=O)N[C@@H](CCCNC(=N)N)C(N)=O)cccc12` [Dansyl-EDR-amide] (Dansyl-Glu-Asp-Arg-NH2) to `CN(C)c1cccc2c(S(=O)(=O)N[C@@H](CCC(=O)O)C(=O)N[C@@H](CCC(=O)O)C(=O)N[C@@H](CCCNC(=N)N)C(N)=O)cccc12` [Dansyl-EER-amide] (Dansyl-Glu-Glu-Arg-NH2), the “Relative Binding Index (RBI)” value rises from −1 a.u to 17 a.u.

Going from `CN(C)c1cccc2c(S(=O)(=O)N[C@@H](CCC(=O)O)C(=O)N[C@@H](Cc3ccccc3)C(=O)N[C@@H](CCCNC(=N)N)C(N)=O)cccc12` [Dansyl-EFR-amide] (Dansyl-Glu-Phe-Arg-NH2) to `CN(C)c1cccc2c(S(=O)(=O)N[C@@H](Cc3ccccc3)C(=O)N[C@@H](CC(=O)O)C(=O)N[C@@H](CCCNC(=N)N)C(N)=O)cccc12` [Dansyl-FDR-amide] (Dansyl-Phe-Asp-Arg-NH2), the “Relative Binding Index (RBI)” value falls from 15 a.u to −9 a.u.

Compared with `CN(C)c1cccc2c(S(=O)(=O)N[C@@H](CCC(=O)O)C(=O)NCC(=O)N[C@@H](CCCNC(=N)N)C(N)=O)cccc12` [Dansyl-EGR-amide] (Dansyl-Glu-Gly-Arg-NH2), `CC(C)[C@H](NC(=O)[C@H](CCC(=O)O)NS(=O)(=O)c1cccc2c(N(C)C)cccc12)C(=O)N[C@@H](CCCNC(=N)N)C(N)=O` [Dansyl-EVR-amide] (Dansyl-Glu-Val-Arg-NH2) is lower in “Relative Binding Index (RBI)” value: 22 a.u for the first, 12 a.u for the second.

First: CN(C)c1cccc2c(S(=O)(=O)N[C@@H](CCC(=O)O)C(=O)N[C@@H](Cc3cnc[nH]3)C(=O)N[C@@H](CCCNC(=N)N)C(N)=O)cccc12 [Dansyl-EHR-amide] (Dansyl-Glu-His-Arg-NH2)
Second: CSCC[C@H](NC(=O)[C@H](CCC(=O)O)NS(=O)(=O)c1cccc2c(N(C)C)cccc12)C(=O)N[C@@H](CCCNC(=N)N)C(N)=O [Dansyl-EMR-amide] (Dansyl-Glu-Met-Arg-NH2)
The “Relative Binding Index (RBI)” value of the first is lower: 11 a.u for the first, 17 a.u for the second.

Compared with `CC[C@H](C)[C@H](NC(=O)[C@H](CCC(=O)O)NS(=O)(=O)c1cccc2c(N(C)C)cccc12)C(=O)N[C@@H](CCCNC(=N)N)C(N)=O` [Dansyl-EIR-amide] (Dansyl-Glu-Ile-Arg-NH2), `CC(C)C[C@H](NC(=O)[C@H](CCC(=O)O)NS(=O)(=O)c1cccc2c(N(C)C)cccc12)C(=O)N[C@@H](CCCNC(=N)N)C(N)=O` [Dansyl-ELR-amide] (Dansyl-Glu-Leu-Arg-NH2) is lower in “Relative Binding Index (RBI)” value: 23 a.u for the first, 8 a.u for the second.

Compared with `CN(C)c1cccc2c(S(=O)(=O)N[C@@H](CCC(=O)O)C(=O)N[C@@H](CCCCN)C(=O)N[C@@H](CCCNC(=N)N)C(N)=O)cccc12` [Dansyl-EKR-amide] (Dansyl-Glu-Lys-Arg-NH2), `CN(C)c1cccc2c(S(=O)(=O)N[C@@H](CCC(=O)O)C(=O)N[C@@H](CC(N)=O)C(=O)N[C@@H](CCCNC(=N)N)C(N)=O)cccc12` [Dansyl-ENR-amide] (Dansyl-Glu-Asn-Arg-NH2) is higher in “Relative Binding Index (RBI)” value: 14 a.u for the first, 18 a.u for the second.

`C[C@H](NC(=O)[C@H](Cc1ccccc1)NS(=O)(=O)c1cccc2c(N(C)C)cccc12)C(=O)N[C@@H](CCCNC(=N)N)C(N)=O` [Dansyl-FAR-amide] (Dansyl-Phe-Ala-Arg-NH2) was tested, and the “Relative Binding Index (RBI)” value was −40 a.u.
